Data published in patent publication US20060005464A1, “Alkyl ethanolamine and biocide combination for hydrocarbon based fuels” (priority 2004, published 2006).

Key:
[1] = system: Pseudomonas Aeruginosa (ATCC27853); experiment: Microtiter plate growth of Pseudomonas Aeruginosa with amines and GROTAN; format: cell-based; settings: for growth of Pseudomonas Aeruginosa (Table 1 entry): pH 8.5, 24 hours; for enhancement in the biocidal effect of GROTAN: conclusion from Table 1
[2] = system: mixed enteric bacteria (klebsiella pneumoniae, Proteus vulgarus, Citrobacter sp., Escherichia coli); experiment: Maximum growth slope of mixed enteric bacteria culture with GROTAN plus alkanolamine; format: cell-based; settings: pH 9.0, TSB with emulsified oil, 24 hour
Experimental: A culture of mixed enteric bacteria (klebsiella pneumoniae, Proteus vulgarus, Citrobacter sp., Escherichia coli) at pH=9.0 in TSB (trypticase soy broth) media mixed with emulsified oil was prepared. A biocide, GROTAN® {78.5% 1,3,5-(2-hydroxyethyl)-s-triazine solution in water} as sold by Troy Chemicals (Florham Park, N.J.) was added at varying concentrations to the culture in combination with 2500 ppm of one of the four alkanolamines, N-butylaminoethanol (BAE), diethanolamine (DEA), diglycolamine (DGA) or 2-amino-2-methyl-1-propanol (AMP). Optical density measurements were taken every 15 minutes over a 24 hour time period (total of 96 data points). The maximum growth slope was calculated by taking the 10 contiguous data points that result in the highest growth slope (units of OD per time) over the 24 hour period. Those 10 data points were subjected to a least squares linear fit to calculate the maximum growth slope.

[3] = system: Mycobacterium smegmatis (ATCC # 19420); experiment: End-point optical density of Mycobacterium smegmatis with N-alkyl alkanolamines (590 nm, 72 h); format: cell-based; settings: 590 nm, after 72 hours, pH 8.5, tetrazolium dye
[4] = system: Pseudomonas aeruginosa (ATCC 10145); experiment: Maximum growth slope of Pseudomonas aeruginosa with Proxel DB20 (BIT) plus alkanolamine; format: cell-based; settings: pH 8.5, TSB, 24 hour
Experimental: A culture of Pseudomonas aeruginosa (ATCC 10145) at pH=8.5 in TSB (trypticase soy broth) media was prepared. The biocide Proxel DB20 (20% suspension of benzoisothiazolone (BIT) in water), as sold by Avecia, was added at varying concentrations in combination with 1000 ppm or 2000 ppm of the alkanolamines N-butylaminoethanol (BAE), 2-amino-2-methyl-1-propanol (AMP), dibutylaminoethanol (DBAE) or n-octylaminoethanol (OAE). Optical density measurements were taken every 15 minutes over a 24 hour time period (total of 96 data points). The maximum growth slope was calculated by taking the 10 contiguous data points that result in the highest growth slope (units of OD per time) over a 24 hour period. Those 10 data points were subjected to a least squares linear fit to calculate the maximum growth slope.

[5] = system: Pseudomonas aeruginosa (ATCC 10145); experiment: Maximum growth slope of Pseudomonas aeruginosa with Bronopol plus alkanolamine; settings: pH 8.5, TSB
[6] = system: Aureobasidium pullulans (ATCC 12536); experiment: End-point optical density of Aureobasidium pullulans with MIT/CMIT plus alkanolamine; format: cell-based; settings: SAB media pH 8.5
Experimental: The impact of N-alkylalkanolamines on the control of the bacterial species Aureobasidium pullulans (ATCC 12536), a bacteria common in water-oil systems, was evaluated by measuring optical absorbance of samples treated with various concentrations of N-alkyl alkanolamines. […] SAB media at pH 8.5 (Tris buffer) was employed. Table 8 summarizes measurement of end-point optical density after 24 hours and 48 hours: […]

[7] = system: Mycobacterium marinum (ATCC # 19420); experiment: End-point optical density and MIC, Mycobacterium marinum (660 nm, 72 h); format: cell-based; settings: pH 8.5; for end-point optical density: 660 nm, after 72 hours
Experimental: The impact of N-alkylalkanolamines on the control of the bacterial species Mycobacterium smegmatis (ATCC # 19420), a bacteria common in water-oil systems, was evaluated by measuring optical absorbance of samples treated with various alkyl ethanolaminesis DCHA=Dicyclohexylamine, OAE=Octylaminoethanol, ODEA=Octyldiethanolamine. Bacterial concentration was monitored indirectly via optical absorbance at 660 nm. The values reported are end-point optical densities in milliOD units after 48 hours. The media consisted of a standardized solution of clear nutrient broth (Middlebrook 7H10 with OADC supplement), amine, buffer (Tris) and water. The pH was adjusted initially to 8.5 with Tris buffer. The first column in the Table gives the amine concentration in ppm. The final two columns give data for cells that also contained 2 grams per liter of boric acid. In all cases, the values are averages of at least three replicates. The final row of the Table gives an estimate of the concentration range in which the amine in question starts to inhibit the growth of this bacterial species.
The impact of the N-alkylalkanolamines of Example 6 on the control of the bacterial species Mycobacterium marinum (ATCC # 19420), bacteria common in water-oil systems, was evaluated as described above in Example 6. Bacterial concentration in the experimental media was monitored indirectly via optical absorbance at 660 nm. The values reported are end-point optical densities in milliOD units after 72 hours. The media consisted of a standardized solution of clear nutrient broth (Middlebrook 7H10 with OADC supplement), amine, buffer (Tris) and water. The pH was adjusted initially to 8.5 with Tris buffer. The first column in the Table gives the amine concentration in ppm. In all cases, the values are averages of at least three replicates. The final row of the Table gives an estimate of the concentration range in which the amine in question starts to inhibit the growth of this bacterial species.

[8] = amine 2000 ppm plus GROTAN 100 ppm
[9] = amine 2000 ppm plus GROTAN 250 ppm
[10] = amine 2000 ppm plus GROTAN 500 ppm
[11] = amine 2000 ppm plus GROTAN 1000 ppm
[12] = amine 2000 ppm plus GROTAN 2000 ppm
[13] = amine 4000 ppm plus GROTAN 100 ppm
[14] = amine 4000 ppm plus GROTAN 250 ppm
[15] = amine 4000 ppm plus GROTAN 500 ppm
[16] = amine 4000 ppm plus GROTAN 1000 ppm
[17] = amine 4000 ppm plus GROTAN 2000 ppm
[18] = 2500 ppm amine plus GROTAN 650 ppm
[19] = 2500 ppm amine plus GROTAN 1650 ppm
[20] = amine 1000 ppm plus BIT 150 ppm
[21] = amine 1000 ppm plus BIT 250 ppm
[22] = amine 1000 ppm plus BIT 500 ppm
[23] = amine 2000 ppm plus BIT 150 ppm
[24] = amine 2000 ppm plus BIT 250 ppm
[25] = amine 2000 ppm plus BIT 500 ppm
[26] = amine 2000 ppm plus Bronopol 5 ppm
[27] = amine 2000 ppm plus Bronopol 15 ppm
[28] = amine 2000 ppm plus Bronopol 25 ppm
[29] = amine 2000 ppm plus Bronopol 35 ppm
[30] = amine 1000 ppm plus 50 ppm MIT/CMIT, 24 hours
[31] = amine 1000 ppm plus 50 ppm MIT/CMIT, 48 hours
[32] = amine 2000 ppm plus 50 ppm MIT/CMIT, 24 hours
[33] = amine 2000 ppm plus 50 ppm MIT/CMIT, 48 hours

Compound: CC(C)(N)CO [AMP, 2-methyl-2-amino-1-propanol, reference compound]
- growth of Pseudomonas Aeruginosa (Table 1 entry) [1, 8]: 0.72
- growth of Pseudomonas Aeruginosa (Table 1 entry) [1, 9]: 0.72
- growth of Pseudomonas Aeruginosa (Table 1 entry) [1, 10]: 0.72
- growth of Pseudomonas Aeruginosa (Table 1 entry) [1, 11]: 0.31
- growth of Pseudomonas Aeruginosa (Table 1 entry) [1, 12]: 0.35
- growth of Pseudomonas Aeruginosa (Table 1 entry) ([1]; amine 2000 ppm, GROTAN 0 ppm): 0.72
- growth of Pseudomonas Aeruginosa (Table 1 entry) [1, 13]: 0.72
- growth of Pseudomonas Aeruginosa (Table 1 entry) [1, 14]: 0.69
- growth of Pseudomonas Aeruginosa (Table 1 entry) [1, 15]: 0.39
- growth of Pseudomonas Aeruginosa (Table 1 entry) [1, 16]: 0.30
- growth of Pseudomonas Aeruginosa (Table 1 entry) [1, 17]: 0.37
- growth of Pseudomonas Aeruginosa (Table 1 entry) ([1]; amine 4000 ppm, GROTAN 0 ppm): 1.12
- enhancement in the biocidal effect of GROTAN [1]: not seen
- maximum growth slope [2, 18]: 0.32 OD per time
- maximum growth slope [2, 19]: 0.069 OD per time
- maximum growth slope ([2]; 2500 ppm amine, GROTAN 0 ppm): 1.065 OD per time
- end-point optical density ([3]; amine 470 ppm): 2100 milliOD
- end-point optical density ([3]; amine 940 ppm): 2200 milliOD
- end-point optical density ([3]; amine 1880 ppm): 2100 milliOD
- end-point optical density ([3]; amine 3750 ppm): 2000 milliOD
- end-point optical density ([3]; amine 7500 ppm): 1700 milliOD
- maximum growth slope [4, 20]: 0.667 OD per time
- maximum growth slope [4, 21]: 0.508 OD per time
- maximum growth slope [4, 22]: 0.407 OD per time
- maximum growth slope ([4]; amine 1000 ppm, BIT 0 ppm): 0.478 OD per time
- maximum growth slope [4, 23]: 0.361 OD per time
- maximum growth slope [4, 24]: 0.320 OD per time
- maximum growth slope [4, 25]: 0.228 OD per time
- maximum growth slope ([4]; amine 2000 ppm, BIT 0 ppm): 0.29 OD per time
- maximum growth slope [5, 26]: 0.345
- maximum growth slope [5, 27]: 0.327
- maximum growth slope [5, 28]: 0
- maximum growth slope [5, 29]: 0
- end-point optical density [6, 30]: 0.3
- end-point optical density [6, 31]: 0.4
- end-point optical density [6, 32]: 0.3
- end-point optical density [6, 33]: 0.4

Compound: CCCCNCCO [BAE, butylaminoethanol]
- growth of Pseudomonas Aeruginosa (Table 1 entry) [1, 8]: 0.49
- growth of Pseudomonas Aeruginosa (Table 1 entry) [1, 9]: 0.45
- growth of Pseudomonas Aeruginosa (Table 1 entry) [1, 10]: 0.35
- growth of Pseudomonas Aeruginosa (Table 1 entry) [1, 11]: 0.30
- growth of Pseudomonas Aeruginosa (Table 1 entry) [1, 12]: 0.36
- growth of Pseudomonas Aeruginosa (Table 1 entry) ([1]; amine 2000 ppm, GROTAN 0 ppm): 0.37
- growth of Pseudomonas Aeruginosa (Table 1 entry) [1, 13]: 0.35
- growth of Pseudomonas Aeruginosa (Table 1 entry) [1, 14]: 0.32
- growth of Pseudomonas Aeruginosa (Table 1 entry) [1, 15]: 0.25
- growth of Pseudomonas Aeruginosa (Table 1 entry) [1, 16]: 0.29
- growth of Pseudomonas Aeruginosa (Table 1 entry) [1, 17]: 0.36
- growth of Pseudomonas Aeruginosa (Table 1 entry) ([1]; amine 4000 ppm, GROTAN 0 ppm): 0.49
- enhancement in the biocidal effect of GROTAN [1]: provide an enhancement in the biocidal effect of GROTAN®
- maximum growth slope [2, 18]: 0.082 OD per time
- maximum growth slope [2, 19]: 0.0515 OD per time
- maximum growth slope ([2]; 2500 ppm amine, GROTAN 0 ppm): 0.2 OD per time
- end-point optical density ([3]; amine 470 ppm): 2200 milliOD
- end-point optical density ([3]; amine 940 ppm): 2100 milliOD
- end-point optical density ([3]; amine 1880 ppm): 2000 milliOD
- end-point optical density ([3]; amine 3750 ppm): 1900 milliOD
- end-point optical density ([3]; amine 7500 ppm): 1700 milliOD
- maximum growth slope [4, 20]: 0.317 OD per time
- maximum growth slope [4, 21]: 0.353 OD per time
- maximum growth slope [4, 22]: 0.281 OD per time
- maximum growth slope ([4]; amine 1000 ppm, BIT 0 ppm): 0.333 OD per time
- maximum growth slope [4, 23]: 0.134 OD per time
- maximum growth slope [4, 24]: 0.000 OD per time
- maximum growth slope [4, 25]: 0.000 OD per time
- maximum growth slope ([4]; amine 2000 ppm, BIT 0 ppm): 0.000 OD per time
- MIC (estimate of the concentration range in which the amine starts to inhibit growth) ([7]; 72 hours): >4000 ppm
- end-point optical density ([7]; amine 800 ppm): 0.7 milliOD
- end-point optical density ([7]; amine 1200 ppm): 0.7 milliOD
- end-point optical density ([7]; amine 2000 ppm): 0.6 milliOD
- end-point optical density ([7]; amine 4000 ppm): 0.6 milliOD
- maximum growth slope [5, 26]: 0.083
- maximum growth slope [5, 27]: 0
- maximum growth slope [5, 28]: 0
- maximum growth slope [5, 29]: 0
- end-point optical density [6, 30]: 0.3
- end-point optical density [6, 31]: 0.3
- end-point optical density [6, 32]: 0.2
- end-point optical density [6, 33]: 0.2

Compound: OCCNCCO [DEA, diethanolamine]
- maximum growth slope [2, 18]: 0.466 OD per time
- maximum growth slope [2, 19]: 0.117 OD per time
- maximum growth slope ([2]; 2500 ppm amine, GROTAN 0 ppm): 0.723 OD per time

Compound: NCCOCCO [DGA, diglycolamine, reference compound]
- growth of Pseudomonas Aeruginosa (Table 1 entry) [1, 8]: 0.71
- growth of Pseudomonas Aeruginosa (Table 1 entry) [1, 9]: 0.70
- growth of Pseudomonas Aeruginosa (Table 1 entry) [1, 10]: 0.76
- growth of Pseudomonas Aeruginosa (Table 1 entry) [1, 11]: 0.32
- growth of Pseudomonas Aeruginosa (Table 1 entry) [1, 12]: 0.34
- growth of Pseudomonas Aeruginosa (Table 1 entry) ([1]; amine 2000 ppm, GROTAN 0 ppm): 0.76
- growth of Pseudomonas Aeruginosa (Table 1 entry) [1, 13]: 0.70
- growth of Pseudomonas Aeruginosa (Table 1 entry) [1, 14]: 0.69
- growth of Pseudomonas Aeruginosa (Table 1 entry) [1, 15]: 0.36
- growth of Pseudomonas Aeruginosa (Table 1 entry) [1, 16]: 0.29
- growth of Pseudomonas Aeruginosa (Table 1 entry) [1, 17]: 0.36
- growth of Pseudomonas Aeruginosa (Table 1 entry) ([1]; amine 4000 ppm, GROTAN 0 ppm): 0.68
- enhancement in the biocidal effect of GROTAN [1]: not seen
- maximum growth slope [2, 18]: 0.1955 OD per time
- maximum growth slope [2, 19]: 0.0725 OD per time
- maximum growth slope ([2]; 2500 ppm amine, GROTAN 0 ppm): 0.796 OD per time
